This is an account of results in US12239650B2, “Compounds for treating and preventing net associated complications” (The Australian National University, priority 2019, dated 2025).

The test system of data set [1] is histones. Nature of the data set: In-vivo histone toxicity assay. Conditions: mice; for Relative potency in protecting from histone-induced tissue pathologies / Protection from histone-induced liver damage, generalised tissue injury and kidney failure (circulating ALT, LDH, creatinine): FIG. 6a; for Protection from histone-induced liver damage, generalised tissue injury and kidney failure (circulating ALT, LDH, creatinine): compound i.p. 10 min prior to i.v. histones 50 mg kg^−1, blood 4 h post-histones, concentration-dependent. The procedure:
In-vivo histone toxicity assays. BALB/c female mice (5-6 weeks of age), that are more prone to histone-induced anemia and easier to inject i.v. at this young age than C57BL/6 mice, were injected i.p. with test compounds at concentrations indicated 10 min prior to i.v. injection of histones (50 mg kg^−1) in phosphate buffered saline. Retro-orbital bleeds were performed with glass Pasteur pipettes 10 min after histone injection and collected blood added to acid citrate dextrose (ACD), the 10 min blood sample being subjected to hematologic analyses for platelet and erythrocyte content using an ADVIA 2120i Hematology Analyzer. Spleens were also harvested at 10 min post-histone injection and splenic hemoglobin content quantified using a hemoglobin assay kit (Sigma-Aldrich). In the case of 4 h blood samples, male C57/BL/6 mice (6-8 weeks of age) were injected with test compounds and histones as above and plasma isolated and stored frozen for subsequent biochemical testing, with markers for liver (alanine aminotransferase, ALT), kidney (creatinine, Crea) and general tissue (lactate dehydrogenase, LDH) damage being determined by the Department of Pathology, The Canberra Hospital.

Data set [2] concerns anti-proliferative effect of sepsis patients sera on HMEC-1. In kind it is cell-based, human. To be noted: HMEC-1, test compounds 200 μg ml^−1, FIG. 9d. The procedure: Detection and analysis of cytotoxicity of septic patient sera for endothelial cells. To measure the cytotoxic activity of septic patients sera for endothelial cells in-vitro, HMEC-1 were seeded into 96-well plates at 2.5×10^4 well^−1 in medium and grown at 37° C. in 5% CO2 for 48 h prior to the addition of 50 μl of patient serum in the presence/absence of DNase I (10 μg ml^−1), anti-human histone 3 and histone 4 rabbit pAbs (200 μg ml^−1) (BioVision), or test compounds (200 μg ml^−1) and incubated for 3 h. ^3H-thymidine (0.5 μCi, MP Biomedical) was then added to each culture well in 20 μl of HMEC-1 medium and incubated for a further 24 h. At the conclusion of the incubation period plates were subjected to 3 freeze/thaw cycles (−70° C. for 30 min, then 37±0.5° C. for 30 min) prior to harvesting and measurement of ^3H-thymidine incorporation. […] Filters were dried at 80° C. and placed in Omnifilter plates (Perkin Elmer) then 20 μl of Microscint-O scintillation fluid (Perkin Elmer) was added to each well and the plate sealed with TopSeal-A adhesive film (Perkin Elmer). ^3H-thymidine incorporation was measured using a TopCount NXT™ Microplate Scintillation and Luminescence Counter (Packard Bioscience). Results expressed as a percentage of the proliferation of HMEC-1 not exposed to patient sera.

The nature of data set [3]: Rat caecal ligation and puncture (CLP) assay for sepsis. The format is in vivo. Conditions: for Mortality in CLP model of sepsis: rats n=8/group, 50 mg kg^−1 i.p. 5 min pre-CLP and 5, 10, 15 h post-op, 20 h, FIG. 7a; for High ALT and creatinine levels (liver and kidney damage) in CLP rats: 50 mg kg^−1 i.p., versus untreated group, FIG. 7b. The procedure:
Rat caecal ligation and puncture (CLP) assay for sepsis. […] Test compounds (50 mg kg^−1) dissolved in saline or an equivalent volume of saline only (Control cohort) were administered i.p. 5 min pre-CLP and 5, 10 and 15 h post-op until cessation of the experiment at 20 h. Sham-CLP rats underwent the same procedure, however, the caecum was not ligated or punctured and these rats received saline at the same times as above. At the conclusion of the experimental time period (20 h) or when morbidity required ethical euthanasia, the rats were anaesthetized and blood was collected via cardiac puncture into EDTA for subsequent analysis of liver (ALT) and kidney (creatinine) function by the Department of Pathology, The Canberra Hospital.

The nature of data set [4]: Rat ischemia reperfusion tissue (skin) flap model. Conditions: rat skin flap IRI, 50 mg kg^−1 i.p., 72 h, FIG. 7d. In kind it is in vivo. The source says: Rat ischemia reperfusion tissue flap model. The procedure employed is largely based on a previously described method (Bone, R. C. et al. Definitions for sepsis and organ failure and guidelines for the use of innovative therapies in sepsis. The ACCP/SCCM Consensus Conference Committee. American College of Chest Physicians/Society of Critical Care Medicine. Chest 101, 1644-1655 (1992)). Briefly, male Wistar rats were anaesthetized, locally depilated and a 3 cm by 6 cm fasciocutaneous flap was excised leaving the vascular pedicle intact. […] The clamp was removed 10 h post-application permitting returned blood flow to the flap. Test compounds (50 mg kg^−1) or saline were administered i.p. 5 min prior to clamp application and 5 min following its removal. The rats were monitored for a total experimental period of 72 h during which rats received additional compound or saline i.p. at 24 and 48 h post-op. The ‘Control No Clamp’ rats had the tissue flap excised and rubber placed underneath prior to re-suturing, however, the vessel was not clamped and they received saline at the same time points as the other rats. At the end of the experimental period the viability of the flaps was determined by the percentage of black necrotic or reddened areas versus pink viable areas. […]

For data set [5], the system named is histone-mediated cytotoxicity for HMEC-1. As to the kind of experiment: Histone-mediated cytotoxicity assay (PI/Calcein-AM flow cytometry). In kind it is cell-based. On the procedure: Histone-mediated cytotoxicity assays. To determine the cytotoxicity of calf thymus histones (Sigma-Aldrich), various concentrations of histones (100-800 μg ml^−1) were added to suspensions of HMEC-1 or HUVEC (1×10^6 ml^−1) in 96 well plates and incubated for 1 h at 37° C. Cells were then incubated for 5 min at 37° C. with propidium iodide (PI; 2.5 μg ml^−1) (ThermoFisher Scientific), to detect dead cells, and Calcein-AM (0.04 μM) (ThermoFisher Scientific), to detect viable cells, placed on ice and the percentage of dead and viable cells determined by flow cytometry using gating strategies. In inhibition assays, HMEC-1 were incubated with histones (400 μg ml^−1) for 1 h at 37° C. in the presence of different concentrations of compounds (12.5-400 μg ml^−1) prior to the addition of PI and Calcein-AM. HMEC-1 cytotoxicity at each compound concentration was then determined based on the formula:
[formula] and the IC50 value for each polyanion then determined based on the line of best fit (nonlinear regression analysis) using Prism Software (Graphpad Software). In all assays MTS (IC50 30 μg ml^−1) was included as a standard to compensate for experimental variation, with data being adjusted in each assay to MTS having an IC50 of 30 μg ml^−1.

Take `O=S(=O)(O)OC[C@H]1O[C@@H](O[C@H]2[C@H](OS(=O)(=O)O)[C@@H](OS(=O)(=O)O)C(OS(=O)(=O)O)O[C@@H]2COS(=O)(=O)O)[C@H](OS(=O)(=O)O)[C@@H](OS(=O)(=O)O)[C@@H]1OS(=O)(=O)O` (some centres unmarked) [CBS, cellobiose per-O-sulfate]: in data set [1], the “Relative potency in protecting from histone-induced tissue pathologies” value was “equally active”; the “Protection from histone-induced liver damage, generalised tissue injury and kidney failure (circulating ALT, LDH, creatinine)” value was “protected”. Also, the “Effect on anti-proliferative activity of the 10 most inhibitory septic patient sera” value in data set [2] was “significantly overrode”. Further, in data set [3], the “Mortality in CLP model of sepsis” value was “no mortality”; the “High ALT and creatinine levels (liver and kidney damage) in CLP rats” value is “not seen”.

Take `O=S(=O)(O)OC[C@H]1O[C@H](O[C@H]2[C@H](OS(=O)(=O)O)[C@@H](OS(=O)(=O)O)C(OS(=O)(=O)O)O[C@@H]2COS(=O)(=O)O)[C@H](OS(=O)(=O)O)[C@@H](OS(=O)(=O)O)[C@@H]1O[C@H]1O[C@H](COS(=O)(=O)O)[C@@H](OS(=O)(=O)O)[C@H](OS(=O)(=O)O)[C@H]1OS(=O)(=O)O` (some centres unmarked) [MTS, maltotriose per-O-sulfate]: the “Histone-induced thrombocytopenia and anaemia” value in data set [1] (100 mg kg^−1 i.p., 10 min post-histones, FIG. 6b) is recorded as “prevented”. Also, in data set [1], the “Relative potency in protecting from histone-induced tissue pathologies” value is “most potent”; the “Protection from histone-induced liver damage, generalised tissue injury and kidney failure (circulating ALT, LDH, creatinine)” value is on record as “protected”. For the same compound, the “Viable area of the skin flap” value in data set [4] is on record as “highly variable”. The “Inhibition of histone-mediated cytotoxicity for HMEC-1 (endothelial cells)” value in data set [5] (compared with heparin, FIG. 2a) was “as effective as heparin”. Moreover, the “IC50, inhibition of histone-mediated HMEC-1 cytotoxicity” value in data set [5] (histones 400 μg ml^−1, 1 h 37° C., MTS used as standard in all assays) is 30 µg/mL. In addition, the “Effect on anti-proliferative activity of the 10 most inhibitory septic patient sera” value in data set [2] is listed as “did not”. Also, in data set [3], the “Mortality in CLP model of sepsis” value is reported as “only one death”; the “High ALT and creatinine levels (liver and kidney damage) in CLP rats” value is “only partially reduced”.
